Test results published in patent US20140343000A1 (priority 2011, published 2014).
Structures can show the parent of a compound that is named as a salt.

test system: recombinant NL4-3 virus (Renilla luciferase in nef, Gag P373S; NLRluc) in MT-2 cells; assay: whole plant or invertebrate; format: cell-based, HIV; settings: Renilla, NL43
In short: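 Inhibitor potency against the reporter virus comes from reduced luciferase activity in infected MT-2 cells exposed to a dilution series of compound over 4-5 days.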

SMILES	EC50 [nM]
C=C(C)[C@@H]1CC[C@]2(NCCNc3cccnn3)CC[C@]3(C)[C@H](CC[C@@H]4[C@@]5(C)CC=C(c6ccc(C(=O)O)cc6)C(C)(C)[C@@H]5CC[C@]43C)[C@@H]12 [Example 200, 4-((1R,3aS,5aR,5bR,7aR,11aS,11bR,13aR,13bR)-5a,5b,8,8,11a-pentamethyl-1-(prop-1-en-2-yl)-3a-(2-(pyridazin-3-ylamino)ethylamino)-2,3,3a,4,5,5a,5b,6,7,7a,8,11,11a,11b,12,13,13a,13b-octadecahydro-1H-cyclopenta[a]chrysen-9-yl)benzoic acid]	< 100

same assay, conditions: Renilla, NL43, luciferase activity in cells infected for 4-5 days with NLRluc recombinants, serial dilutions of inhibitor; class symbols (key in Table 1); read-out: EC50

SMILES	EC50 [nM]
C=C(C)[C@@H]1CC[C@]2(NCCNc3ccc(C)nn3)CC[C@]3(C)[C@H](CC[C@@H]4[C@@]5(C)CC=C(c6ccc(C(=O)O)cc6)C(C)(C)[C@@H]5CC[C@]43C)[C@@H]12 [Example 194, 4-((1R,3aS,5aR,5bR,7aR,11aS,11bR,13aR,13bR)-5a,5b,8,8,11a-pentamethyl-3a-(2-(6-methylpyridazin-3-ylamino)ethylamino)-1-(prop-1-en-2-yl)-2,3,3a,4,5,5a,5b,6,7,7a,8,11,11a,11b,12,13,13a,13b-octadecahydro-1H-cyclopenta[a]chrysen-9-yl)benzoic acid]	< 100
C=C(C)[C@@H]1CC[C@]2(NCCNC(C)=O)CC[C@]3(C)[C@H](CC[C@@H]4[C@@]5(C)CC=C(c6ccc(C(=O)O)cc6)C(C)(C)[C@@H]5CC[C@]43C)[C@@H]12 [Example 195, 4-((1R,3aS,5aR,5bR,7aR,11aS,11bR,13aR,13bR)-3a-(2-acetamidoethylamino)-5a,5b,8,8,11a-pentamethyl-1-(prop-1-en-2-yl)-2,3,3a,4,5,5a,5b,6,7,7a,8,11,11a,11b,12,13,13a,13b-octadecahydro-1H-cyclopenta[a]chrysen-9-yl)benzoic acid]	< 100
C=C(C)[C@@H]1CC[C@]2(NCCNc3ccc(SC)cn3)CC[C@]3(C)[C@H](CC[C@@H]4[C@@]5(C)CC=C(c6ccc(C(=O)O)cc6)C(C)(C)[C@@H]5CC[C@]43C)[C@@H]12 [Example 196, 4-((1R,3aS,5aR,5bR,7aR,11aS,11bR,13aR,13bR)-5a,5b,8,8,11a-pentamethyl-3a-(2-(5-(methylthio)pyridin-2-ylamino)ethylamino)-1-(prop-1-en-2-yl)-2,3,3a,4,5,5a,5b,6,7,7a,8,11,11a,11b,12,13,13a,13b-octadecahydro-1H-cyclopenta[a]chrysen-9-yl)benzoic acid]	< 100
C=C(C)[C@@H]1CC[C@]2(NCCNc3nccc(SC)n3)CC[C@]3(C)[C@H](CC[C@@H]4[C@@]5(C)CC=C(c6ccc(C(=O)O)cc6)C(C)(C)[C@@H]5CC[C@]43C)[C@@H]12 [Example 197, 4-((1R,3aS,5aR,5bR,7aR,11aS,11bR,13aR,13bR)-5a,5b,8,8,11a-pentamethyl-3a-(2-(4-(methylthio)pyrimidin-2-ylamino)ethylamino)-1-(prop-1-en-2-yl)-2,3,3a,4,5,5a,5b,6,7,7a,8,11,11a,11b,12,13,13a,13b-octadecahydro-1H-cyclopenta[a]chrysen-9-yl)benzoic acid]	< 100
C=C(C)[C@@H]1CC[C@]2(NCCNc3cccc(SC)n3)CC[C@]3(C)[C@H](CC[C@@H]4[C@@]5(C)CC=C(c6ccc(C(=O)O)cc6)C(C)(C)[C@@H]5CC[C@]43C)[C@@H]12 [Example 198, 4-((1R,3aS,5aR,5bR,7aR,11aS,11bR,13aR,13bR)-5a,5b,8,8,11a-pentamethyl-3a-(2-(6-(methylthio)pyridin-2-ylamino)ethylamino)-1-(prop-1-en-2-yl)-2,3,3a,4,5,5a,5b,6,7,7a,8,11,11a,11b,12,13,13a,13b-octadecahydro-1H-cyclopenta[a]chrysen-9-yl)benzoic acid]	< 100
C=C(C)[C@@H]1CC[C@]2(NCCNc3ncccn3)CC[C@]3(C)[C@H](CC[C@@H]4[C@@]5(C)CC=C(c6ccc(C(=O)O)cc6)C(C)(C)[C@@H]5CC[C@]43C)[C@@H]12 [Example 199, 4-((1R,3aS,5aR,5bR,7aR,11aS,11bR,13aR,13bR)-5a,5b,8,8,11a-pentamethyl-1-(prop-1-en-2-yl)-3a-(2-(pyrimidin-2-ylamino)ethylamino)-2,3,3a,4,5,5a,5b,6,7,7a,8,11,11a,11b,12,13,13a,13b-octadecahydro-1H-cyclopenta[a]chrysen-9-yl)benzoic acid]	< 100
C=C(C)[C@@H]1CC[C@]2(NCCNc3ccc(S(C)(=O)=O)cn3)CC[C@]3(C)[C@H](CC[C@@H]4[C@@]5(C)CC=C(c6ccc(C(=O)O)cc6)C(C)(C)[C@@H]5CC[C@]43C)[C@@H]12 [Example 201, 4-((1R,3aS,5aR,5bR,7aR,11aS,11bR,13aR,13bR)-5a,5b,8,8,11a-pentamethyl-3a-(2-(5-(methylsulfonyl)pyridin-2-ylamino)ethylamino)-1-(prop-1-en-2-yl)-2,3,3a,4,5,5a,5b,6,7,7a,8,11,11a,11b,12,13,13a,13b-octadecahydro-1H-cyclopenta[a]chrysen-9-yl)benzoic acid]	< 100
C=C(C)[C@@H]1CC[C@]2(N)CC[C@]3(C)[C@H](CC[C@@H]4[C@@]5(C)CC=C(c6ccc(C(=O)O)c(F)c6)C(C)(C)[C@@H]5CC[C@]43C)[C@@H]12 [Example A1, 4-((1R,3aS,5aR,5bR,7aR,11aS,11bR,13aR,13bR)-3a-amino-5a,5b,8,8,11a-pentamethyl-1-(prop-1-en-2-yl)-2,3,3a,4,5,5a,5b,6,7,7a,8,11,11a,11b,12,13,13a,13b-octadecahydro-1H-cyclopenta[a]chrysen-9-yl)-2-fluorobenzoic acid]	< 100
C=C(C)[C@@H]1CC[C@]2(NCCN3CCS(=O)(=O)CC3)CC[C@]3(C)[C@H](CC[C@@H]4[C@@]5(C)CC=C(c6ccc(C(=O)O)c(F)c6)C(C)(C)[C@@H]5CC[C@]43C)[C@@H]12 [Example A2, benzoic acid, 4-[(1R,3aS,5aR,5bR,7aR,11aS,11bR,13aR,13bR)-3a-[[2-(1,1-dioxido-4-thiomorpholinyl)ethyl]amino]-2,3,3a,4,5,5a,5b,6,7,7a,8,11,11a,11b,12,13,13a,13b-octadecahydro-5a,5b,8,8,11a-pentamethyl-1-(1-methylethenyl)-1H-cyclopenta[a]chrysen-9-yl]-2-fluoro-, HCl]	< 100
C=C(C)[C@@H]1CC[C@]2(NCCN3CCOCC3)CC[C@]3(C)[C@H](CC[C@@H]4[C@@]5(C)CC=C(c6ccc(C(=O)O)c(F)c6)C(C)(C)[C@@H]5CC[C@]43C)[C@@H]12 [Example A3, 2-fluoro-4-((1R,3aS,5aR,5bR,7aR,11aS,11bR,13aR,13bR)-5a,5b,8,8,11a-pentamethyl-3a-(2-morpholinoethylamino)-1-(prop-1-en-2-yl)-2,3,3a,4,5,5a,5b,6,7,7a,8,11,11a,11b,12,13,13a,13b-octadecahydro-1H-cyclopenta[a]chrysen-9-yl)benzoic acid]	< 100
C=C(C)[C@@H]1CC[C@]2(NCCN3CCCC3=O)CC[C@]3(C)[C@H](CC[C@@H]4[C@@]5(C)CC=C(c6ccc(C(=O)O)c(F)c6)C(C)(C)[C@@H]5CC[C@]43C)[C@@H]12 [Example A4, 2-fluoro-4-((1R,3aS,5aR,5bR,7aR,11aS,11bR,13aR,13bR)-5a,5b,8,8,11a-pentamethyl-3a-(2-(2-oxopyrrolidin-1-yl)ethylamino)-1-(prop-1-en-2-yl)-2,3,3a,4,5,5a,5b,6,7,7a,8,11,11a,11b,12,13,13a,13b-octadecahydro-1H-cyclopenta[a]chrysen-9-yl)benzoic acid]	< 100
C=C(C)[C@@H]1CC[C@]2(NCCCN3CCCC3=O)CC[C@]3(C)[C@H](CC[C@@H]4[C@@]5(C)CC=C(c6ccc(C(=O)O)c(F)c6)C(C)(C)[C@@H]5CC[C@]43C)[C@@H]12 [Example A5, 2-fluoro-4-((1R,3aS,5aR,5bR,7aR,11aS,11bR,13aR,13bR)-5a,5b,8,8,11a-pentamethyl-3a-(3-(2-oxopyrrolidin-1-yl)propylamino)-1-(prop-1-en-2-yl)-2,3,3a,4,5,5a,5b,6,7,7a,8,11,11a,11b,12,13,13a,13b-octadecahydro-1H-cyclopenta[a]chrysen-9-yl)benzoic acid]	< 100
C=C(C)[C@@H]1CC[C@]2(NCCCN3CCS(=O)(=O)CC3)CC[C@]3(C)[C@H](CC[C@@H]4[C@@]5(C)CC=C(c6ccc(C(=O)O)c(F)c6)C(C)(C)[C@@H]5CC[C@]43C)[C@@H]12 [Example A6, benzoic acid, 4-[(1R,3aS,5aR,5bR,7aR,11aS,11bR,13aR,13bR)-3a-[[3-(1,1-dioxido-4-thiomorpholinyl)propyl]amino]-2,3,3a,4,5,5a,5b,6,7,7a,8,11,11a,11b,12,13,13a,13b-octadecahydro-5a,5b,8,8,11a-pentamethyl-1-(1-methylethenyl)-1H-cyclopenta[a]chrysen-9-yl]-2-fluoro-]	< 100
C=C(C)[C@@H]1CC[C@]2(NCCN3CCN(S(C)(=O)=O)CC3)CC[C@]3(C)[C@H](CC[C@@H]4[C@@]5(C)CC=C(c6ccc(C(=O)O)c(F)c6)C(C)(C)[C@@H]5CC[C@]43C)[C@@H]12 [Example A8]	< 100
C=C(C)[C@@H]1CC[C@]2(N)CC[C@]3(C)[C@H](CC[C@@H]4[C@@]5(C)CC=C(c6ccc(C(=O)O)s6)C(C)(C)[C@@H]5CC[C@]43C)[C@@H]12 [Example B1, 5-((1R,3aS,5aR,5bR,7aR,11aS,11bR,13aR,13bR)-3a-amino-5a,5b,8,8,11a-pentamethyl-1-(prop-1-en-2-yl)-2,3,3a,4,5,5a,5b,6,7,7a,8,11,11a,11b,12,13,13a,13b-octadecahydro-1H-cyclopenta[a]chrysen-9-yl)thiophene-2-carboxylic acid]	< 100
